Reference: patent publication US12697331B2, “Methods of use of T-type calcium channel modulators” (PRAXIS PRECISION MEDICINES, INC., priority 2020, dated 2026)
Counter-ions that a name gives are not always drawn.

Tests used:
[1] = system: sigma band EEG power during NREM sleep; assay: 24-hour EEG/PSG: sigma band EEG power during NREM sleep; type: in vivo, human
Experimental: The effects of multiple doses of a wider dose range (Part A: 5, 10, 20 mg; Part B: 60, 80, 100, 120 mg) on sigma band EEG power during NREM sleep were also evaluated as part of the protocol described in Example 11, above. 24-hour EEG/PSG recordings were performed the day before dosing (baseline day) and after dosing on Days 4, 8, and 12 (for Part A) or Days 10, 17, 24, and 31 (for Part B). Part B also included placebo-treated participants for statistical comparisons.

[2] = system: NREM sigma, EO and EC gamma absolute power; assay: Population PKPD modelling of EEG power versus model-predicted plasma concentration (NONMEM); type: in vivo, human
Experimental: The pharmacokinetic/pharmacodynamic (PKPD) effects of administration a compound of formula (II) on EEG were also evaluated. The recording of the NREM sigma absolute power was reported as a single summary value of a single night of sleep following each dose on pre-specified days (baseline and Days 4, 8 and 12 for Example 11, Part A and Days 10, 17, 24, and 31 for Part B, as set forth in Tables 22 and 23, above. Each NREM sigma absolute power value was paired with a model predicted average plasma concentration (Cave) that corresponded to the 24-hour EEG recording period on the respective study day. For example, if the period of EEG recording for an individual was from 6 am on Day 4 to 6 am on Day 5, then the corresponding Cave was calculated as the average of the individual's model-predicted concentrations (sampled every 30 minutes) from that same time period. The resulting PKPD data were analyzed in a mixed-effects modelling framework using NONlinear Mixed Effects Modeling (NONMEM) software. The change from baseline NREM sigma absolute power was specified as the outcome and the primary explanatory variable was the Cave of a compound of formula (II).
The eyes open (EO) and eyes closed (EC) gamma absolute power for each individual was also estimated at specific time points across the study days.
The population PK model was used to generate Cave for NREM sigma absolute power and concentrations for EO and EC gamma absolute power. For NREM sigma absolute power, the Cave was computed for the final day of each dose level over the EEG collection interval. For EO and EC gamma absolute power, concentrations at 4 hours post-dose and 23.75 hours post-dose were generated on the final day of each dose level. The final population PKPD models for NREM sigma absolute power and EO and EC gamma absolute power were then used to generate corresponding EEG responses.

[3] = biological target: T1, hCav3.3 (Homo sapiens, UniProt Q9P0X4); assay: PatchXpress patch clamp, tonic block (resting state, -120 mV); type: cell-based
T1 construct: expressed in transfected cells; host or cells: HEK-293 (cultured under G418 selection)
T1 sequence (Q9P0X4 whole entry): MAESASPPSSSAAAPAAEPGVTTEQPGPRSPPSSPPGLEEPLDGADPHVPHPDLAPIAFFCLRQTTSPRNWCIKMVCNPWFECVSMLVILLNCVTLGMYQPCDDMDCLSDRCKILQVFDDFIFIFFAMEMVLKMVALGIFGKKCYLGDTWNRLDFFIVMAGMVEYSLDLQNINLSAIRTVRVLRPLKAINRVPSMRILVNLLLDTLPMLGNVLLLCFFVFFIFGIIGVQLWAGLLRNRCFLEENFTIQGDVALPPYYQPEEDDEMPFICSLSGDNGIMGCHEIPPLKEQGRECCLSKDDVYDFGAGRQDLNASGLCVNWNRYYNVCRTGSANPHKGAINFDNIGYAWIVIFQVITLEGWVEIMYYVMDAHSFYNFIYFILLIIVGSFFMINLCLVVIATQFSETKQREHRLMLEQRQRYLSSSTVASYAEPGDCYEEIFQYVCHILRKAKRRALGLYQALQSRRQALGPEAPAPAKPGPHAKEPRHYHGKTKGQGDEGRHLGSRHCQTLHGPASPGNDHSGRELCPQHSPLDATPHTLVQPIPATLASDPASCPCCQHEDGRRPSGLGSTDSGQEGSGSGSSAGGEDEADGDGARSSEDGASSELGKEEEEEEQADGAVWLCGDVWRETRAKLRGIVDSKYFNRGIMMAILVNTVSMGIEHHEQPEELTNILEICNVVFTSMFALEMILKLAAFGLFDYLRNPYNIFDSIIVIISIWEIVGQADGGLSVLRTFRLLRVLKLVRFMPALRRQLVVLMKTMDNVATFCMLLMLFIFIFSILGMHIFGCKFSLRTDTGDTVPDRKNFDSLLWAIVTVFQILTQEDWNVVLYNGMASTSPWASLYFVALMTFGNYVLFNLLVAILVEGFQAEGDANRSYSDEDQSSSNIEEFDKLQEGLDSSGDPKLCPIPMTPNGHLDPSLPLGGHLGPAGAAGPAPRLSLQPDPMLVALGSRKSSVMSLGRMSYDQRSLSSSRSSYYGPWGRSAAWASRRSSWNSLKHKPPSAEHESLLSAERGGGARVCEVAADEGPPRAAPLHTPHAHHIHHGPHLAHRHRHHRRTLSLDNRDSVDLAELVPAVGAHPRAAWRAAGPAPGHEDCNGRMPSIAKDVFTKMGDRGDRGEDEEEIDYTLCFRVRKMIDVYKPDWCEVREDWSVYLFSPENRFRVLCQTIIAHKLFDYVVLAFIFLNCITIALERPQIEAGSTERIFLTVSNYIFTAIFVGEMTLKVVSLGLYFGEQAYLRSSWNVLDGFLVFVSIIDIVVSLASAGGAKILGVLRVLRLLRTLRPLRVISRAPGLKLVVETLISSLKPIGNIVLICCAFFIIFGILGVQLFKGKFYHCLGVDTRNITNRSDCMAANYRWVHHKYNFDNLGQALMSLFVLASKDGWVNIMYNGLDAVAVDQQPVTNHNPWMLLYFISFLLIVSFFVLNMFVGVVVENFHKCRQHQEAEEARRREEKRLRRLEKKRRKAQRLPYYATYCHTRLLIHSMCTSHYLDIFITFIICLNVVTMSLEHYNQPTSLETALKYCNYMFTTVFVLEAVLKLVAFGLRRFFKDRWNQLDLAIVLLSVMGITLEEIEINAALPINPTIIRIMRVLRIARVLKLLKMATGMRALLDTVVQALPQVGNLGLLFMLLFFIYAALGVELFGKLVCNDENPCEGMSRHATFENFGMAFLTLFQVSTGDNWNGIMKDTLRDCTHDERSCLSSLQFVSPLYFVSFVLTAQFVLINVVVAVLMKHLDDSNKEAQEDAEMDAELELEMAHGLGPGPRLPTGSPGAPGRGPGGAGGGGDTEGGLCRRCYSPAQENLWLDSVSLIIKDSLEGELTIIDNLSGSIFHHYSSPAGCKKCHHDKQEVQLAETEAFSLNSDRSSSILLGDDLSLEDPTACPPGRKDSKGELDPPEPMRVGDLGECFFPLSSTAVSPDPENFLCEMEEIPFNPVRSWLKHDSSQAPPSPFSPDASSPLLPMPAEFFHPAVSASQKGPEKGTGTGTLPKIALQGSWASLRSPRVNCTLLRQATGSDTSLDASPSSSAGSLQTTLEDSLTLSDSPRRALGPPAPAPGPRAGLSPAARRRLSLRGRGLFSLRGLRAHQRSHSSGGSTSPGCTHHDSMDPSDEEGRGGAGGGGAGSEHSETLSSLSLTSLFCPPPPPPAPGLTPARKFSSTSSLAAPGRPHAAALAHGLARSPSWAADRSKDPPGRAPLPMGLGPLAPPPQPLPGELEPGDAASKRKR
Experimental: (§1) The voltage dependence of calcium channel isoforms was determined by comparing the activity of resting (Tonic Block) and half-inactivated (Voltage Dependent Block) voltages across various concentrations of Formula (II). First, HEK-293 cells containing hCav3.1, hCav3.2, or hCav3.3 calcium channel isoforms were prepared by seeding at 2×10^6 cells per flask in culture for 2 days; the cells were then harvested at about 6×10^6 cells. Harvested cells were washed once in DPBS for approximately 30 minutes, and 1 mL of 1× (0.05%) Trypsin-EDTA was added, swirled, and allowed to sit on the cells for approximately 4 minutes. 10 mL of warmed DMEM high glucose media supplemented with 10% fetal bovine serum, 2 mM sodium pyruvate, 10 mM HEPES, and 400 μg/mL G418 was added, and the cells were triturated until a single cell suspension was […]. Cells were placed in a 250 mL centrifuge tube with 30 mL warmed media and gently rocked at 28° C. for approximately 1 hour. Cell aliquots of 5 mLs (1×10^6 cells) were then centrifuged at 100× for 2 minutes, and supernatant was removed. Next, 100 μl of external recording solution was added to the remaining cell pellet and triturated 20 times to achieve a single cell suspension.
(§2) Immediately prior to assay, Formula (II) was diluted with DMSO to 300× the designated final concentration. All studies were performed using the Molecular Devices PatchXpress automated patch clamp platform at room temperature.
(§3) To determine the hCav3.1, hCav3.2, and hCav3.3 peak current from a resting, closed state (tonic block), currents were evokes by depolarizing pulses to −25 mV (10 ms) from −120 mV (a non-inactivated holding potential) at a frequency of 0.1 Hz. Peak current was defined as the peak inward current during Epoch 1 with no leak subtraction applied. Current stability was monitored, and the potency of each compound was determined using concentration response curves.
(§4) Pharmacology was measured during Epoch 1. Percent inhibition was calculated as: 100*((([Step 2+Step 5]/2)−Step 3)/(Step 2+Step 5/2)), wherein Step 2 is the peak current measured at baseline, Step 5 is the current measured during the wash period, and Step 3 is the peak current measured during application of the compound. The average of the final 3 consecutive currents in each experimental procedure was used for all calculations. The concentration response curve was fit with a Hill equation to derive IC50, slope, minimum response, and maximum response fitting parameters.

[4] = biological target: T2, hCav3.1 (Homo sapiens, UniProt O43497); assay: as above; type: cell-based
T2 construct: expressed in transfected cells; host or cells: HEK-293 (cultured under G418 selection)
Experimental: as §1, §2, §3, §4

[5] = biological target: T3, hCav3.2 (Homo sapiens, UniProt O95180); assay: as above; type: cell-based
T3 construct: expressed in transfected cells; host or cells: HEK-293 (cultured under G418 selection)
T3 sequence (O95180 whole entry): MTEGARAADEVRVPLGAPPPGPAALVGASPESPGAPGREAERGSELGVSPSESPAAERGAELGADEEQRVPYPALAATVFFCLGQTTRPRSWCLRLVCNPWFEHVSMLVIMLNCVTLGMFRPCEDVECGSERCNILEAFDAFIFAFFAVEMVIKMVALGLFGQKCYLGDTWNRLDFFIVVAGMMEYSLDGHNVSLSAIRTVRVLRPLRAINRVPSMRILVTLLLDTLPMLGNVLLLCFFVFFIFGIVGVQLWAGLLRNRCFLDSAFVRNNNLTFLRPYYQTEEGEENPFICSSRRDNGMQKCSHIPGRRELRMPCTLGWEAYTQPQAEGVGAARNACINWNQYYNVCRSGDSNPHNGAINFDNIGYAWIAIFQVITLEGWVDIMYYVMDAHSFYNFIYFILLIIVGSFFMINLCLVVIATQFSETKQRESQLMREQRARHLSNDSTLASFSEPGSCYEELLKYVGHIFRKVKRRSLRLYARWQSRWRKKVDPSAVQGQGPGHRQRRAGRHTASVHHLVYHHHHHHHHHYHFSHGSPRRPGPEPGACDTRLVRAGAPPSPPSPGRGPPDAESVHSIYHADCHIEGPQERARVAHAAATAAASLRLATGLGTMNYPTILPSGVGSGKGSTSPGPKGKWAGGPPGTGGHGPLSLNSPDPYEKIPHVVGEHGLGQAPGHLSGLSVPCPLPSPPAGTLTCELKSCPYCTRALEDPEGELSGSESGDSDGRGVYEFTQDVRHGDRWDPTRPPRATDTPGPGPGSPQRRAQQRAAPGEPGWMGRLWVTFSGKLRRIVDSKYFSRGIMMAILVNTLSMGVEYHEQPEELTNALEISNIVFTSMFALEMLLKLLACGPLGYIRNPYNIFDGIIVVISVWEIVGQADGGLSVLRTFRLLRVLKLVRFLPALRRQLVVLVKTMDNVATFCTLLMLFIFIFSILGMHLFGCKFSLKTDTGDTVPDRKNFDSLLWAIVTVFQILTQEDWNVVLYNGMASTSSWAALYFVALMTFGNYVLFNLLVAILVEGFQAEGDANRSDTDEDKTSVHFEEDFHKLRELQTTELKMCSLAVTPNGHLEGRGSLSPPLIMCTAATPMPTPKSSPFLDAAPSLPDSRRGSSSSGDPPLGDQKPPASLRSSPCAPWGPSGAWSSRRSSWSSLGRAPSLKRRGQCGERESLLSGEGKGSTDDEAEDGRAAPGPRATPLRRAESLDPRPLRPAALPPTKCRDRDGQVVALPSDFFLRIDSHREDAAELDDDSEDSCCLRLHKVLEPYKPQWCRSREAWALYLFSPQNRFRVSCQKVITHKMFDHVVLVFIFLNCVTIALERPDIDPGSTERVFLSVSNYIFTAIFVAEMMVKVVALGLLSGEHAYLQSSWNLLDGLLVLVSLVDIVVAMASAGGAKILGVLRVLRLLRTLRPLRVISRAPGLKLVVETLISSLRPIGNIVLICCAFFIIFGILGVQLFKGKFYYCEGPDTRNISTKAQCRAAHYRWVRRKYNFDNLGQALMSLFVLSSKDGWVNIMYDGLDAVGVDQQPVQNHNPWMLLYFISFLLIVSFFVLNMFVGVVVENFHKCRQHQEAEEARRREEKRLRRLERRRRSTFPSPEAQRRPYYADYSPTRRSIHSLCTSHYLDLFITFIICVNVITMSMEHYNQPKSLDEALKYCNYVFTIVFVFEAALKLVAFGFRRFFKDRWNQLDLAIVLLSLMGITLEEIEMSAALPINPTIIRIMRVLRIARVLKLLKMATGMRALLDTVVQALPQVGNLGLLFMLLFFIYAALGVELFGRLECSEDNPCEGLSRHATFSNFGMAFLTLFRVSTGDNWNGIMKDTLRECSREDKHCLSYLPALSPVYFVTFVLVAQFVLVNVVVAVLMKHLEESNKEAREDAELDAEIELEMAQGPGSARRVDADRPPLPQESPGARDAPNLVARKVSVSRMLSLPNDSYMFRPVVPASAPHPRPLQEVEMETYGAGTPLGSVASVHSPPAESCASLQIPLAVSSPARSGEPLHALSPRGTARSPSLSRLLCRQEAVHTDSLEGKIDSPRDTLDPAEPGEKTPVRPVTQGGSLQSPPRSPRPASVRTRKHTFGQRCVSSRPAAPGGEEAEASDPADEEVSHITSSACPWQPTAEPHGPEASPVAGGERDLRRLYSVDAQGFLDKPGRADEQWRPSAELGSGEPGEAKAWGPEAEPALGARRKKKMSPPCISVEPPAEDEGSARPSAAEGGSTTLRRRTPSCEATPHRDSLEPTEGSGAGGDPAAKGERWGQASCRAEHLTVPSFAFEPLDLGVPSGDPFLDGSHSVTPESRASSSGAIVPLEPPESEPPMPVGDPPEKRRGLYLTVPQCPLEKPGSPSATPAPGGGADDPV
Experimental: as §1, §2, §3, §4

In the case of `CC(C)(C)NC(=O)CN1CCC(CNC(=O)c2cc(F)cc(Cl)c2)CC1` [compound of formula (II), N-((1-(2-(tert-butylamino)-2-oxoethyl)piperidin-4-yl)methyl)-3-chloro-5-fluorobenzamide hydrochloride], the “Effect on NREM sigma band as compared to a placebo control” value ([1]; 20 mg tablet and 40 mg tablet (FIG. 12)) is reported as “decrease”, the “NREM sigma power, Difference Ratio Formula (II) v. Placebo” value ([1]; Day 10 (60 mg), Part B) is reported as 0.550 and the “Dose at which the decrease in sigma band EEG power plateaued” value ([1]; Part B, relative to placebo-treated subjects) is reported as 80 mg. For the same compound, the “Cave at which maximum reduction in NREM sigma absolute power appeared to occur” value ([2]; model predicted average plasma concentration, titrated) was “greater than 180 ng/mL”, the “C(t) at which maximum reduction in EC gamma absolute power appeared to occur” value ([2]; titrated up to 120 mg) was > 300 ng/mL and the “C(t) at which maximum reduction in EO gamma absolute power appeared to occur” value ([2]; titrated up to 120 mg) was > 300 ng/mL. For the same compound, the “Inhibition of peak current, tonic block, Mean” value (shortened to “Inhibition of peak current”) ([3]; 0.09 μm) was 3.8 (7) %, the “Inhibition of peak current” value ([3]; 0.27 μm) was 23.0 (11) % and the “Inhibition of peak current” value ([3]; 0.91 μm) was 54.5 (5) %. The “Inhibition of peak current” value ([3]; 2.74 μm) was 77.1 (6) %, the “Inhibition of peak current” value ([3]; 9.13 μm) was 92.1 (5) % and the “Inhibition of peak current” value ([3]; 27.40 μm) was 94.6 (5) %. For the same compound, the “Inhibition of peak current” value ([4]; 0.09 μm) was 8.8 (7) %, the “Inhibition of peak current” value ([4]; 0.27 μm) was 29.4 (11) % and the “Inhibition of peak current” value ([4]; 0.91 μm) was 50.2 (9) %. For the same compound, the “Inhibition of peak current” value ([4]; 2.74 μm) was 67.5 (10) %, the “Inhibition of peak current” value ([4]; 9.13 μm) was 76.6 (9) % and the “Inhibition of peak current” value ([4]; 27.40 μm) was 89.5 (4) %. For the same compound, the “Inhibition of peak current” value ([5]; 0.09 μm) was 12.6 (4) %, the “Inhibition of peak current” value ([5]; 0.27 μm) was 37.1 (6) % and the “Inhibition of peak current” value ([5]; 0.91 μm) was 55.1 (13) %. For the same compound, the “Inhibition of peak current” value ([5]; 2.74 μm) was 76.2%, the “Inhibition of peak current” value ([5]; 9.13 μm) was 89.7% and the “Inhibition of peak current” value ([5]; 27.40 μm) was 96.9%. The “Inhibition of peak current” value ([5]; 91.33 μm) was 98.2%.
